Test results: patent US6849416B2, “Monoclonal antibody” (priority 2001, dated 2005)
Where a SMILES comes first, the peptide text is derived from it. [ ]: non-standard residue; d: D form. The star is where a group is joined. Nle = CCCC[C@H](N)C(=O)O; Cbz = O=C(OCc1ccccc1)*

Tests used:
[1] = Aβ IPG 2D-PAGE of synthetic Aβ peptides (isoelectric point); assay type: physicochemical; settings: IPG pH 4-7
Description: The samples are taken up in IPG-SB (table 5a). Dry substance and Dynabeads magnetically immobilized by means of MSP (see below) are taken up directly with the IPG-SB immediately before IEF and incubated in an ultrasonic bath at 37° C. for 10 min. Taking up of liquid biological samples: after removal of the mixed bed ion exchanger (Serdolit MB-1), the IPB-SB is divided into aliquots (e.g. 100 μl) in Eppendorf sample vessels and concentrated to the dry substance at room temperature using a SpeedVac. The IPG-SB introduced as dry substance is taken up with sample with the ratio 1:1 by volume (e.g. 100 μl) and, after a vortex step (1 min.), incubated in an ultrasonic bath at 37° C. for 10 min.
The IEF using commercial IPG “[…]” took place in accordance with the manufacturer's protocol (Amersham Pharmacia Biotech/brief instructions 71-5009-57, edition AA, 99-04). IPG “[…]” (4-7, linear pH gradient, length 7 cm) were rehydrogenated to a gel thickness of 0.5 mm using the rehydrogenation solution from table 5a at room temperature overnight. The sample loading device (“sample cups”) is placed on the basic side of the IPG strips, at about pH 6.5 (cathodic loading) and 30 μl of sample is loaded. The IPG-IEF takes place for 30 min/300V, 30 min/800V, 30 min./1400V and 5 h/2000V ([…]).
The IPG-IEF is followed by equilibration of the “[…]” for 2×10 min. (table 5b). The first equilibration solution contains DTT (50 mg/5 ml), the second solution iodoacetamide (240 mg/5 ml) for neutralization of excess DTT, which otherwise leads to color artefacts on silver staining of the gels. The second equilibration step is unnecessary for the Western immunoblot. The equilibrated IPG “[…]” are fixed on the stacking gel of the Aβ SDS-PAGE using agarose solution (table 5c). A sample well for loading synthetic Aβ peptides or Mr marker proteins for comparison is made in the hot agarose using a Teflon tooth. The electrophoresis takesplace in accordance with 3.1.2.

[2] = tested on: human APP751Sw transgenic H4 neuroglioma cell line (released Aβ peptides); assay: Treatment of APP751Sw transgenic H4 neuroglioma cells with protease inhibitors, Aβ peptides released into supernatant; assay type: cell-based; settings: for Aβ1-40, Aβ1-42, Aβ1-37/38/39 and Aβ2-42 released into cell culture supernatant: versus DMSO control
Description: FIG. 27: two Aβ SDS-PAGE/immunoblots 2 which show a treatment of a human 751APPSw trangenic H4 neuroglioma cell line with various protease inhibitors (23a) and a dose-dependent effect of calpain inhibitor 1 (23b). The released Aβ peptides were quantified in 4 μl of SDS/thermally denatured cell culture supernatants in each case (cf. FIGS. 23a,b). For comparison, the sAPPα concentration in the cell culture supernatants was determined.
In panel a: (1) is DMSO control; (2) is 50 μM calpain inhibitor 1; (3) is 100 μM calpain inhibitor 3; (4) is 5 μM MG132; (5) is 25 μM calpeptin; (a-d) is mix of synthetic Aβ peptides.
The released Aβ peptides were quantified in 4 μl of SDS/thermally denatured cell culture supernatants in each case. The dose-dependent effect of calpain inhibitor 1 on the Aβ peptide concentration in the supernatant was investigated, comparing with the DMSO control.
The released Aβ peptides were quantified in 4 μl of SDS/thermally denatured cell culture supernatants in each case. The dose-dependent effect of calpain inhibitor 1 on the proportion of an Aβ peptide species as a percentage of the total Aβ peptide concentration was investigated, comparing with the DMSO control.
If the samples are in liquid form (e.g. cell culture supernatants, cell homogenates) and if the Aβ peptide concentration is sufficiently high it is possible to take up one volume unit of sample with one volume unit of the double concentrated SDS-SB-2 (table 3).
A comparative investigation was carried out on the Aβ peptide pattern in neuroglioma cells (H4) which have been transfected with humanAPP751Sw. […] Aβ2-42 can also be indentified. After treatment with inhibitors of β/γ-secretases (calpain inhibitor I&II, calpeptin, MG132, leupeptin), besides Aβ1-40 and Aβ1-42 there is also a reduction in the C-terminally truncated Aβ peptides 1-37/38/39 and the N-terminally truncated Aβ2-42 (FIGS. 28a,b).

[3] = Cryoprecipitation of synthetic peptide dissolved in water; assay type: physicochemical; settings: dissolved with comparable concentration in water, freezing
Excerpt: This makes it probable that the reduction caused by cryoprecipitation in Aβ1-42 in human CSF derives predominantly from the aggregate-bound proportion of the peptide. In the case of comparatively hydrophobic aggregates—for example lipoprotein-containing complexes—a loss through cryoprecipitation would not be surprising. In this connection, it is shown hereinafter (4.2.4) that ε4-positive patients in the NDC-3CP group show a particularly high rate of CP-related reduction in Aβ1-42 and have CSF levels which are approximately as low as ε4-positive AD-3CP patients.

Compound	isoelectric point [1]	Aβ1-40, Aβ1-42, Aβ1-37/38/39 and Aβ2-42 released into cell culture supernatant [2]	other results
Aβ2-40: synthetic β-amyloid peptide 2-40, lacking N-terminal aspartate	6.37	–	–
CC(C)C[C@@H](C=O)NC(=O)[C@H](CC(C)C)NC(=O)[C@H](CC(C)C)NC(=O)OCc1ccccc1 [MG132] (Cbz-Leu-Leu-Leu-aldehyde)	–	reduction	–
Aβ3-40: synthetic β-amyloid peptide 3-40	6.37	–	–
Aβ1-42: synthetic β-amyloid peptide 1-42 (Bachem)	5.37	–	cryoprecipitation compared with Aβ1-42 in human CSF [3]: distinctly less cryoprecipitation
CCCC[C@@H](C=O)NC(=O)[C@H](CC(C)C)NC(=O)[C@H](CC(C)C)NC(C)=O [calpain inhibitor 1] (Ac-Leu-Leu-[Nle]-aldehyde)	–	dose-dependent reduction	Aβ1-42 concentration at low concentration of the protease inhibitor ([2]; low inhibitor concentration): initial (paradoxical) increase; Aβ2-42 concentration in relation to the increase in Aβ1-42 ([2]; low inhibitor concentration): did not correlate with an increase; Aβ1-40, Aβ1-42, Aβ1-37/38/39 and Aβ2-42 released into cell culture supernatant ([2]; listed as calpain inhibitor I): reduction
CSCC[C@@H](C=O)NC(=O)[C@H](CC(C)C)NC(=O)[C@H](CC(C)C)NC(C)=O [calpain inhibitor II] (Ac-Leu-Leu-Met-aldehyde)	–	reduction	–
CC(=O)N[C@@H](CC(C)C)C(=O)N[C@@H](CC(C)C)C(=O)N[C@H](C=O)CCCNC(=N)N [leupeptin]	–	reduction	–
CCCC[C@@H](C=O)NC(=O)[C@H](CC(C)C)NC(=O)OCc1ccccc1 [calpeptin]	–	reduction	–
